Tests used:
U2OS cells [1] = assay: Cell-cycle distribution by flow cytometry; format: cell-based, human; conditions: for cell-cycle distribution after IR exposure: 24 h post-irradiation
Method: To test this possibility, U2OS cells were pre-treated with S or AS oligonucleotides, exposed to IR, and cell-cycle distributions at 24 h post-irradiation were determined.

U2OS cells [2] = assay: Clonogenic survival assay of oligonucleotide-transfected cells; format: cell-based, human; conditions: for reduction of basal level of colony outgrowth (basal clonogenic activity): non-irradiated, 10 days in culture
ATX [3] = target: T1, ATX (Homo sapiens, UniProt Q96Q15); assay: Immune complex kinase assay, immunoprecipitated HA-ATXWT, GST-p53 1-70 substrate; format: biochemical; conditions: pretreatment of immunoprecipitated HA-ATXWT; GST-p53 1-70 phosphorylation; read-out: drug concentration required for 50% inhibition (IC50) of ATX activity in vitro
T1 construct: expressed in transfected cells; host or cells: HEK 293T, pcDNA3.1, immunoprecipitated with anti-HA antibody

p53 = p53 Ser-15 phosphorylation and p53 accumulation (immunoblot); format: cell-based, human
From the text: A major mediator of stress-induced signaling in mammalian cells is the tumor suppressor protein, p53 (Ko and Prives, Genes and Development 10:1054-1072, (1996); Ryan et al., Curr. Opin. Cell Biol. 13:332-337 (2001)). ATX phosphorylates p53 on Ser-15 (FIG. 1C), a site implicated in the regulation of p53 stability and transcriptional activity (Dumaz and Meek, Curr. Opin. Cell Biol. 13:225-231 (1999); Zhang and Xiong, Science 292:1910-1915 (2001)). Therefore, the possibility that these two proteins are functionally linked during cellular stress responses was investigated. U2OS cells were transiently transfected with a HA-ATXWT or HA-ATXKI expression plasmid, together with a GFP-encoding plasmid to allow for FACS-based enrichment of the transfected cells. The GFP+ cells were then examined for IR-induced stabilization of p53, as well as for specific phosphorylation of this protein on Ser-15. […] In contrast, overexpression of ATXWT enhanced both of these responses in cells exposed to IR.
The recognition of UV light-induced DNA damage occurs primarily during S phase, when pyrimidine dimers and other bulky lesions interfere with replication fork progression (Friedberg, DNA Repair and Mutagenesis (Washington, D.C., ASM Press) (1995); Lindahl and Wood, Cell 103:1121-1131 (1999)).
In order to further define the potential linkage between DNA replicational stress and ATX, the response of AS-treated cells to 5-fluorouracil (5-FU), an S-phase specific cytotoxic agent was examined (Danenberg et al., Seminars in Oncology. 26:621-631 (1999); Grem, Investigational New Drugs 18:299-313 (2000)).
Changes in phosphorylation at Ser-15 are typically accompanied by alterations in the expression of the p53 protein, which complicates the interpretation of results obtained by immunoblotting of whole cell extracts with phospho-Ser-15-specific antibodies. In order to confirm that reduced ATX expression interferes with stress-induced Ser-15 phosphorylation, U2OS cells were transfected with either the S or AS oligonucleotide, and then were pretreated with the proteasome inhibitor, LLnV, to stabilize p53. In the presence of LLnV, the p53 level in each test population was relatively unaffected by UV exposure (data not shown). However, the ratio of phospho-Ser-15 to total p53 protein was increased by UV irradiation of both the mock-transfected and S oligonucleotide-treated cells.

ATX [4] = assay: ATX protein level in oligonucleotide-treated cells (immunoblot); format: cell-based, human; conditions: U2OS
hChk2 = assay: IR-dependent phosphorylation of hChk2 (immunoblot); format: cell-based, human; conditions: U2OS
From the text: Recent findings point toward ATM as a critical upstream regulator of the activity of the checkpoint kinase, hChk2, in IR-damaged cells (Ahn et al., Cancer Res. 60:5934-5936 (2000); Melchionna et al., Nat. Cell Biol. 2:762-765 (2000)). To determine whether ATX was also involved in hChk2 activation, the effect of AS oligonucleotide treatment on the IR-dependent phosphorylation of hChk2 was examined. […] Moreover, the differential effects of AS treatment on p53 expression versus hChk2 activation argue against the possibility that AS exposure leads to nonspecific inhibition of checkpoint signaling responses to IR-induced DNA damage.

T1 sequence (Q96Q15 141-3661 S144C): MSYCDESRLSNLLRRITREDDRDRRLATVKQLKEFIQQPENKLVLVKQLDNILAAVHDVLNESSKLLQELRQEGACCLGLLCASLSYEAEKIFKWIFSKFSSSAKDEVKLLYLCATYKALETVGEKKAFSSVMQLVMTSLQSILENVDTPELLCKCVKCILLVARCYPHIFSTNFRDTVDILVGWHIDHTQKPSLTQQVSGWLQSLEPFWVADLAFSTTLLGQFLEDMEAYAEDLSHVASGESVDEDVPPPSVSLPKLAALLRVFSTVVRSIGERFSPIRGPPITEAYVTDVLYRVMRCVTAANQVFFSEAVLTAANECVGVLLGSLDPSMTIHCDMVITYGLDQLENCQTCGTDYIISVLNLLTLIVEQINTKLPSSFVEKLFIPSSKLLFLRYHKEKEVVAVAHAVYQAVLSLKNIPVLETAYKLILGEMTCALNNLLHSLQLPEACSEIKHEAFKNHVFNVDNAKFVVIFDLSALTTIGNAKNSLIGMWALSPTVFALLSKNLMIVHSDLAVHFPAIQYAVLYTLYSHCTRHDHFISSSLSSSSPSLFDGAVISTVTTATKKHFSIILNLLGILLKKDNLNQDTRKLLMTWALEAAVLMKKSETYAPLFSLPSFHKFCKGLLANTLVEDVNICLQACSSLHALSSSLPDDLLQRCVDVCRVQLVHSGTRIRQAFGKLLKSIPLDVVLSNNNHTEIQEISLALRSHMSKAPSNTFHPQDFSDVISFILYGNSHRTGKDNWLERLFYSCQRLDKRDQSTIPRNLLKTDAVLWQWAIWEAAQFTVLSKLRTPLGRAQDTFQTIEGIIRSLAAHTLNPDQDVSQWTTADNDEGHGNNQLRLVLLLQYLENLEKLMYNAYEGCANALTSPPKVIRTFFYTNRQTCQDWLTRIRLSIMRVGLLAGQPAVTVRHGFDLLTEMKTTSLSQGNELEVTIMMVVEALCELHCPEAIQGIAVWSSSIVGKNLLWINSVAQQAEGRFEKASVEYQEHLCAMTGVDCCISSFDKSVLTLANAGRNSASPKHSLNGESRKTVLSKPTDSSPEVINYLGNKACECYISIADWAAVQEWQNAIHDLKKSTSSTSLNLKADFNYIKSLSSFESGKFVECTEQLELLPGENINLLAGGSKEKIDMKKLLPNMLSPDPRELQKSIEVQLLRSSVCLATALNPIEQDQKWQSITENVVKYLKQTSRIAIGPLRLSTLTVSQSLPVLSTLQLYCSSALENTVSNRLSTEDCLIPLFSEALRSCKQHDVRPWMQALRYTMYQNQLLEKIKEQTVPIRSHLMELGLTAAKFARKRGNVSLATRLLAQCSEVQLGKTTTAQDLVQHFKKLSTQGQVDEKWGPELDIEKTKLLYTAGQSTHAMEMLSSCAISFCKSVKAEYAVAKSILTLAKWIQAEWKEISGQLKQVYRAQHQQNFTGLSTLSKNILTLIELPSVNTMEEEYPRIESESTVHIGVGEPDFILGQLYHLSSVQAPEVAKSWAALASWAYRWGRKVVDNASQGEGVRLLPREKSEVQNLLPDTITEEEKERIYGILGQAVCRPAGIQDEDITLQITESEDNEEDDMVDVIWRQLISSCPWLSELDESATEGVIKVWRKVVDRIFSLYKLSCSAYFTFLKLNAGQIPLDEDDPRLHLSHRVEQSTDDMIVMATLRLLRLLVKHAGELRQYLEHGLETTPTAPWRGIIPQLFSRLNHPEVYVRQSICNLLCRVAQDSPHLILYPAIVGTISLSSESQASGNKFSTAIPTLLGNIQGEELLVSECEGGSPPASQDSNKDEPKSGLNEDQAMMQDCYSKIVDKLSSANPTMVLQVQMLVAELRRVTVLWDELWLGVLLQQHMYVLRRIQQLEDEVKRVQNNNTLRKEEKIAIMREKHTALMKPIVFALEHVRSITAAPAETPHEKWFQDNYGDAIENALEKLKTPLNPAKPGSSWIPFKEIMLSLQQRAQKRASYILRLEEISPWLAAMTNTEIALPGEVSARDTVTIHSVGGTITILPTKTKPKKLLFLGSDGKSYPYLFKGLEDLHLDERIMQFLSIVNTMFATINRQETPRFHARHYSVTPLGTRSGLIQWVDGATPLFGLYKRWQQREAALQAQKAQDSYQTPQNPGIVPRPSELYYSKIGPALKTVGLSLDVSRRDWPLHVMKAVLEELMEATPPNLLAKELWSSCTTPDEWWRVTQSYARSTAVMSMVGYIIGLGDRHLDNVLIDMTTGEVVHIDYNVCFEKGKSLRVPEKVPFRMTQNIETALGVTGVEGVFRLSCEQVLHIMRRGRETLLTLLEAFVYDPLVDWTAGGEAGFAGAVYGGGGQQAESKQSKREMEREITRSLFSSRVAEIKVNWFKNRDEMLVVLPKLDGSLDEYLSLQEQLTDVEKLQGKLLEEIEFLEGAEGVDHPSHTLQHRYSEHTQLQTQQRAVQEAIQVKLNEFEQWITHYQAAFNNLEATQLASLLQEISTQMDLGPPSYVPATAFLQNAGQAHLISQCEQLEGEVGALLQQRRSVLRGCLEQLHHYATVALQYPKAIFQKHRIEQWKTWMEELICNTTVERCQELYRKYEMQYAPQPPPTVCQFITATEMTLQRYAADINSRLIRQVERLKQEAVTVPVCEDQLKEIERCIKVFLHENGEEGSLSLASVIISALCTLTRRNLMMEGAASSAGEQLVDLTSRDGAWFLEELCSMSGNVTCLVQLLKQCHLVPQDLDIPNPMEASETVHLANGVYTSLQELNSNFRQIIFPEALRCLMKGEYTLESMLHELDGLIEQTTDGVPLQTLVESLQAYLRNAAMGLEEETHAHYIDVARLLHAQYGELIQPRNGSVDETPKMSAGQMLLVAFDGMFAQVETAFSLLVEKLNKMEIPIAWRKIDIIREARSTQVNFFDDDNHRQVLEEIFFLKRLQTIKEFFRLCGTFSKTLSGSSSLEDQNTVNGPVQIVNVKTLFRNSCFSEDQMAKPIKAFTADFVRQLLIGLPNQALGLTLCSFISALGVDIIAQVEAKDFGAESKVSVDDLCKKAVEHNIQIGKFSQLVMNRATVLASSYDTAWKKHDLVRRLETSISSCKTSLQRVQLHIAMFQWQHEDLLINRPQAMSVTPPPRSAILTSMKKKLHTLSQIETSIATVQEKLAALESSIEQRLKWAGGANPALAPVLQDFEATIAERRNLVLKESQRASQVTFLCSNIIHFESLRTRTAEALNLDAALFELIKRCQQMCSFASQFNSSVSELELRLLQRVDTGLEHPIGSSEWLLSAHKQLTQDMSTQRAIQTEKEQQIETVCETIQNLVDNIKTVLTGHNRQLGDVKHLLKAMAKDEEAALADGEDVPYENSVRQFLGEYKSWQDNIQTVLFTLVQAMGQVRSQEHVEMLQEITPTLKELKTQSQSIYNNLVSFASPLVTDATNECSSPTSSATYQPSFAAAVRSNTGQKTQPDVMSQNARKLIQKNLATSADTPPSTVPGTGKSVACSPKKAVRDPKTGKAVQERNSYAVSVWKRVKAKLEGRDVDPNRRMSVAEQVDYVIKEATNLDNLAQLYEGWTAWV

Compound: 5′-GAGACAGGAGGGAGCTTGCT-3′ (all phosphorothioate, sugars by position and methylation of C not given here) [S oligonucleotide, reference compound]
- cell-cycle distribution after IR exposure (U2OS cells [1]): accumulated in both G1 and G2/M phases
- reduction of basal level of colony outgrowth (basal clonogenic activity) (U2OS cells [2]): 25%

Compound: COC[C@H]1OC(=O)c2coc3c2[C@@]1(C)C1=C(C3=O)[C@@H]2CCC(=O)[C@@]2(C)C[C@H]1OC(C)=O [wortmannin]
- IC50 (ATX [3]): 10 to 100 nM

Compound: O=c1[nH]cc(F)c(=O)[nH]1 [5-FU, 5-fluorouracil, reference compound]
- p53 Ser-15 phosphorylation (p53; U2OS treated with the drug): not accompanied by an increase in Ser-15 phosphorylation
- p53 expression (p53; U2OS treated with the drug): increased p53 expression to levels similar to those observed in UV-irradiated cells

Compound: 5′-AGCAAGCTCCCTCCTGTCTC-3′ (phosphorothioate backbone, further chemistry not given here) [AS oligonucleotide, antisense phosphorothioate oligonucleotide complementary to ATX nucleotides 210-229]
- cell-cycle distribution after IR exposure (U2OS cells [1]): arrested primarily in G2/M phase
- cell-cycle distribution in the absence of IR (U2OS cells [1]; compared to S oligonucleotide-treated cells): reduction in the percentage of G1 phase cells, and a concomitant accumulation of G2/M phase cells
- sensitivity to suppressive effects of IR and UV on clonogenic survival (U2OS cells [2]; IR (FIG. 2C) and UV): significantly more sensitive
- reduction of basal level of colony outgrowth (basal clonogenic activity) (U2OS cells [2]): 75%
- level of p53 induction by 5-FU (p53; AS-treated U2OS versus S-treated): identical to that observed in their S-treated counterparts
- stoichiometric increase in Ser-15 phosphorylation triggered by UV-induced stress (p53; U2OS pretreated with proteasome inhibitor LLnV): effectively blocked
- phosphorylation and stabilization of p53 induced by IR exposure (p53; U2OS, IR): reduced both the phosphorylation and stabilization of p53
- Ser-15 phosphorylation and p53 protein accumulation in UV-damaged cells (p53; U2OS, UV): severely impaired
- expression levels of control proteins ATM and PLC-γ1 (ATX [4]; immunoblot): no significant change
- reduction in ATX protein (ATX [4]; over 10 independent trials): 50-90%
- IR-dependent phosphorylation of hChk2 (hChk2): retained the ability to phosphorylate hChk2

Source: patent publication US7537911B2, “ATM related kinase, ATX, nucleic acids encoding same and methods of use” (Burnham Institute for Medical Research, priority 2002, dated 2009)
